Data taken from patent US20020055495A1, “Two-component anti-emetic composition” (priority 2000, published 2002).
Read-outs that look alike come from different tables or passages of the source. One block for each compound: values may come before it.

What was measured:
[1] = tested on: male Spargue-Dawley rats; assay: locomotor depressant effect in rats (center distance traveled, Digiscan activity monitors); format: in vivo, rat; conditions: metaclopramide 4 mg/kg s.c., rats pretreated with saline, 30 minutes recording
Method: In this example, the effect of the addition of a steroid, such as dexamethasone, on metoclopramide's locomotor depressant effects is studied. Forty-eight male Spargue-Dawley rats (250-350 g) are used for this experiment. The rats are housed in pairs and allowed free access to food and water and are not handled except for cage changes and weighing prior to testing. All experimental procedures are performed during the rat's nocturnal cycle, in dimly lit behavior rooms, except that the rats are moved to adjacent behavior rooms 30 minutes prior to testing. Eight rats are tested at a time, four rats from each condition are tested together and groups are randomly chosen to control for order sequence effects. The locomotor experiments are carried out in clear, acrylic 41×41×30 cm test chambers inside Ominitech Digiscan activity monitors (Accuscan, Inc.). Each monitor uses two arrays of infrared photocell beams (8×8 photocells, model RXYZCM-8) to detect several parameters of the rat's movement both horizontally and vertically. Data is collected in 5-min bins during testing. Dexamethasone (Sigma) is dissolved in deionized water at concentrations of 0.16, 0.4, 0.8, and 4 mg/ml. […] Each rat is then immediately placed into a locomotor testing box and the data is recorded for 30 minutes (5-min bins). The data is analyzed with a one way ANOVA for the dependent variable, center distance traveled. […]

[2] = molecular target: dopamine D2 receptor (Homo sapiens, UniProt P14416); assay: dopamine D2 receptor binding, metoclopramide alone and with dexamethasone added
Method: Metoclopramide is an inhibitor of the dopamine D2 receptor which negatively effects motor function through D2 blockade causing extrapyramidal signs and symptoms (EPS). The effect of the addition of a steroid, such as dexamethasone, on metoclopramide's binding affinity at the dopamine D2 receptor is studied. […] Dexamethasone is then added in relative concentrations based on weight to achieve the following results: […]

[3] = cited from earlier work
[4] = tested on: nausea and emesis; conditions: cited from earlier work

Sequence of dopamine D2 receptor (P14416 whole entry, species assumed): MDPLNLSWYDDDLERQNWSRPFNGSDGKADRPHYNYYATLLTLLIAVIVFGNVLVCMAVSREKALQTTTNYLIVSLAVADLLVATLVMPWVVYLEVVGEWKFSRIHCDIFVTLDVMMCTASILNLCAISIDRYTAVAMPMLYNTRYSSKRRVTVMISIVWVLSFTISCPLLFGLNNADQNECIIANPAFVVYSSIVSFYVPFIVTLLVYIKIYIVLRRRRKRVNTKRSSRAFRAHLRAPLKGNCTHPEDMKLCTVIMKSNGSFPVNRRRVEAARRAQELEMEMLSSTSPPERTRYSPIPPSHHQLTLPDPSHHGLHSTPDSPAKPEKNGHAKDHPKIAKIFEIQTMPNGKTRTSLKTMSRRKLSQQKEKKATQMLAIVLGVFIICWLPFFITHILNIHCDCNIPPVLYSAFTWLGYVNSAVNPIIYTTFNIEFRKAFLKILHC

center distance traveled (locomotor depressant effect) [1]: significantly reduces
% Inhibition D2 Binding ([2]; MTC 8.6 nM, alone or with DEX (0.7-17.2 nM) added at the stated DEX:MTC weight ratio): 50%
IC50 ([2]; metoclopramide alone, read-out: IC50 (the concentration that inhibits 50% of dopamine D2 binding)): 8.6 nM
SMILES: CCN(CC)CCNC(=O)c1cc(Cl)c(N)cc1OC [metoclopramide]
solubility in aqueous solution ([3]; acid addition salt form): freely soluble in aqueous solution
solubility in water ([3]; free base form): quite water insoluble

SMILES: Cc1nccn1CC1CCc2c(c3ccccc3n2C)C1=O (stereo not shown) [ondansetron]
anti-emetic efficacy ([4]; Soukop et al. 1992, repeated chemotherapy for breast cancer): significantly superior than MTC

SMILES: CN1C2CCCC1CC(NC(=O)c1nn(C)c3ccccc13)C2 (stereo not shown) [oral granisetron, granisetron]
anti-emetic efficacy ([4]; Heron et al. 1994, Chevallier 1993, cisplatin-induced emesis): superior to MTC
